Test systems include RXF-631 renal; XF 498 CNS; DLD-1 colon; LXFL 529 NSCLC.
Holding throughout (test): NCI tumour cell line growth inhibition, 48 h

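Cultured in 96-well plates, cells were exposed to test compound for 48 hours across five concentrations. TGI denotes the concentration required for complete inhibition of growth.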 Where a SMILES comes first, the peptide text is derived from it. [ ]: non-standard residue; d: D form. The star is where a group is joined. ξ: configuration not given here. NMeF = CN[C@@H](Cc1ccccc1)C(=O)O; ξNMeV = CNC(C(=O)O)C(C)C; Boc = CC(C)(C)OC(=O)*; OBn = c1ccc(CO*)cc1

As for `CC1(C)C2CCC3(OCCO3)C1C1OC12` (centres undefined), the TGI with RXF-631 renal and in the assay on XF 498 CNS was above 100 µM in each case.

In the case of `O=C1C2CCC(C2)C12CC1(c3ccccc3)C(=O)c3ccccc3N1O2` (centres undefined), the TGI with DLD-1 colon, in the assay with LXFL 529 NSCLC and in the assay with XF 498 CNS was above 100 µM in each case.

`COc1ccc([N-]/C(=N\n2c(=O)c(C)nn(C)c2=S)N(c2ccc(OC)cc2)c2nn3c(=O)c(C)n[n+](C)c3s2)cc1`: the TGI with DLD-1 colon and in the assay on LXFL 529 NSCLC was above 100 µM each time.

On to `CC(C)C(C(=O)N1CCC[C@@H]1C(=O)OCc1ccccc1)N(C)C(=O)C(C(C)C)N(C)C(=O)[C@H](Cc1ccccc1)N(C)C(=O)[C@H](NC(=O)OC(C)(C)C)C(C)C` (some centres undefined) (Boc-[dV][NMeF][ξNMeV][ξNMeV][dP]-OBn), for which the TGI in the assay on DLD-1 colon, with LXFL 529 NSCLC and in the assay with XF 498 CNS was above 100 µM throughout.

As for `CC(C)OP(=O)(OC(C)C)/C(=N/N)NNc1ccc([N+](=O)[O-])cc1`, the TGI in the assay with DLD-1 colon, in the assay on LXFL 529 NSCLC and in the assay with XF 498 CNS was above 100 µM throughout.

Consider `CC(=O)OC1CC2(c3ccccc3)C(=O)c3ccccc3N2O1` (centres undefined), for which the TGI in the assay on DLD-1 colon, with LXFL 529 NSCLC and in the assay on XF 498 CNS was above 100 µM throughout.

Turning to `CC12CC[C@H](O)C(C)(C)[C@H]1CC[C@](C)(O)C2COc1ccc2ccc(=O)oc2c1` (some centres undefined), the TGI in the assay on DLD-1 colon, in the assay with LXFL 529 NSCLC and with XF 498 CNS was above 100 µM in each case.

Turning to `COc1ccc(C2ON(c3ccccn3)CC=C2C)cc1` (centres undefined), the TGI with DLD-1 colon, in the assay with LXFL 529 NSCLC, with RXF-631 renal and with XF 498 CNS was above 100 µM throughout.

Regarding `O=c1c2ccccc2nc(-c2ccccc2)n1NC(=S)Nc1ccc(Cl)cc1[N+](=O)[O-]`, the TGI in the assay on DLD-1 colon and with LXFL 529 NSCLC was above 100 µM throughout.

With `CSc1ccc2c(cc1=O)C(NC(=O)c1ccc(OC(C)=O)cc1)CCc1cc(O)c(O)c(O)c1-2` (centres undefined), the figures for the TGI with DLD-1 colon and in the assay on LXFL 529 NSCLC were 35.8 µM and 35.2 µM, respectively.

Consider `COc1cc(C(C)c2cc3c(cc2OCCCCOc2cc4c(cc2C(C)c2cc(OC)c(OC)c(OC)c2)OCO4)OCO3)cc(OC)c1OC` (centres undefined), for which the TGI in the assay on DLD-1 colon is above 100 µM; with LXFL 529 NSCLC, above 100 µM; in the assay on RXF-631 renal, above 100 µM; in the assay on XF 498 CNS, 89.2 µM.

For `O=C1c2nn(-c3ccccc3)nc2C(c2ccccc2)N1c1ccccc1` (centres undefined), the TGI in the assay with DLD-1 colon, with LXFL 529 NSCLC and in the assay with XF 498 CNS was above 100 µM throughout.

(Values after PubChem BioAssay (NCI).)
